Test results from patent US8524193B2, “Non-invasive diagnostic imaging technology for mitochondria using radiolabeled lipophilic salts” (The Johns Hopkins University, priority 2002, dated 2013).
“And” between values parts separate entries of the source, which are not always exact repeats. Identical values can stand only once. Like-named read-outs stand apart in the source and are kept apart here.

Key:
[1] = C-11-TPMP uptake kinetics in the myocardium (PET); type: in vivo; conditions: dog, five-fold increase (by adenosine) in flow
Procedure: We have examined the performance of C-11-triphenyl phosphonium cation (TPMP) for assessing regional myocardial flow in dog using PET (Kraus, 1994).
Methods: Four mCi of C-11-TPMP were introduced i.v., and dynamic images of increasing duration (15 sec to 20 min) were acquired over a total time of 85 min. Images were acquired on the GE 4096+ PET scanner (15 slices, 6.5 mm slice thickness). Images were reconstructed using backprojection, and corrected for attenuation. A detailed description of methods appears in Kraus, 1994. These images show excellent visualization of the myocardium with a high contrast to the surrounding lung tissue. During the plateau time period heart/lung ratio was >14:1, and heart/blood >100:1. Under baseline conditions (flow=69 ml/min/100 g), the extraction fraction is very high (91%). […] To investigate the relationship between myocardial blood flow and C-11-TPMP uptake in the heart, the LAD was occluded and the C-11-TPMP accumulation in tissue samples compared to microsphere determined regional myocardial blood flow. A significant correlation (r=0.93, p<0.01) was found at 5 min after LAD occlusion (FIG. 12). The non-infracted/infracted myocardium ratio was 12.1±2.4. […] Thallium 201 extraction under baseline flow is about 80%, decreasing to about 60% for five-fold increases in flow rate. […]

[2] = F-18-FBnTP myocardial accumulation in pacing model of heart failure (PET); type: in vivo, mongrel dog
Procedure: Pacing of the mongrel dog heart at high rate (210 bpm) for a four weeks is a well-established model of heart failure. The advantage of this model is that the cardiomyopathy solely involve apoptosis without stenosis of coronary artery or related ischemia. Therefore, in this model the affect of apoptosis on FBnTP uptake can be dissected.
Methods: Preparation of dog and data acquisition was performed as described above. Mongrel dog was installed with a pacemaker in the rib case and underwent FBnTP PET scan (presented above). Following the baseline scan, the dog_s heart was paced at a rate of 210 bpm for 4 weeks and a second scan was acquired.
FIG. 18 depicts co-registered images before and after pacing. […] Quantitation of FBnTP in the myocardium was performed using region of interest placed on co-registered myocardial images, whose activity was normalized to the injected dose, before and after pacing. An example for ROI placement is illustrated in FIG. 18.

FCA-induced inflammation = experiment: Accumulation in FCA-induced inflammation tissue and healthy muscle; type: in vivo, rats; conditions: for Inf/Control: ratio inflammation tissue to healthy muscle, 3 days after FCA; for Accumulation, Control: rats, healthy muscle, 3 days after administration of FCA
Procedure: (§1) 0.1 ml of nitrosomethyl urea (NUM) was introduced i.p in female rats (150 g). When tumor reached an approximate size of 1 to 1.5 cm, FCA was injected (0.15 ml) to the hind limb footpad. Uptake assays were carried out 3 days thereafter. F-18-FBnTP (0.25 mCi) was injected via tail vein. Sixty minutes later tumor, inflamed tissue and healthy muscle tissue of the opposite limb (control) were collected on ice, weighed and counted in a gamma counter together with standards.
The accumulation of the novel F-18-phosphonium cations, F-18-FBnTP and F-18-fluoropropyl triphenyl phosphonium (F-18-FPTP) in comparison with F18-FDG in FCA-induced inflammation and healthy tissue is presented in Table 2. Induction of inflammation and activity counting were carried out as described above. Fluorophosphonium compounds accumulate in inflammation much less than FDG (Table 2). These date provide strong evidence to our claim that F-18-phosphonium compound are suitable for differentiation of tumor from inflammation and may resolve a major drawback of F-18-FDG. Table 2: Accumulation of Fluorophosphonium Compounds (FBnTP and FPTP) FDG in inflammation tissue and healthy muscle 3 days after administration of FCA.

[3] = tested on: Human lung carcinoma H549 cells; experiment: Mitochondria membrane potential (MMP)-dependent cellular uptake with CCCP; type: cell-based; conditions: CCCP 30, 60, 90, 120 μM, 30 min
Procedure: The extent of MMP-dependent cellular uptake of F-18-FBnTP was assessed using CCCP, a known protonophore that selectively abolishes the MMP.
Methods: Human lung carcinoma H549 cells ([…]) were incubated with 0.1 μCi/ml F-18-FBnTP for 30 min. Samples of the suspension (1 mL) were transferred to Eppendorf's vials and placed in a 370 C bath. Varying concentrations (30, 60, 90, 120 μM) of CCCP were added to the suspension. After 30 min of incubation with CCCP, the Eppendorf vials were centrifuged for 1 min, and activity in pellet and supernatant was immediately counted.

[4] = tested on: orthotopic NMU mammary tumor; experiment: Uptake in NMU mammary tumor versus healthy gland and FCA inflammation; type: in vivo; conditions: NMU-bearing female rats, 60 min after injection, normalized to muscle
Text: The carcinogen nitrosomethyl urea (NMU) induces carcinoma tumors solely in the mammary gland of female rats. Therefore, the orthotopic NMU mammary tumor is an excellent model for evaluating tracer tumor selectivity by contrasting radioactivity accumulating in mammary gland infested with carcinoma cells and healthy mammary gland. Freund Complete Adjuvant (FCA) is a well_studied inflammation agent in rats Induction of FCA inflammation in NMU-bearing rats allows for direct quantitation of tracer capability to differentiate carcinoma from inflammation.
as §1

[5] = Stability of F-18-FBnTP in plasma after injection into mice (column switch HPLC); type: in vivo
Procedure: Radiochemical purity of F-18-FBnTP and its stability in vivo was measured by chromatography.
Samples of mouse plasma were obtained from heparinized whole bloodcollected 5, 15 and 30 min p.i. of the tracer. To eliminate binding to plasma proteins, the plasma was added to solid urea to give a final concentration of 8M urea. The plasma-urea was loaded into a column switch HPLC system (Hilton 2000), in which the plasma passes through a small capture column (Oasis Sorbent, Waters Corp.), which retains lipophilic solutes, while polar species fail to bind and are detected as they pass through a positron detector. After four minutes, the capture column is free of plasma proteins and polar species. Then, the contents of the capture column was swept onto an analytical column (Prodigy ODS-3, Phenomenex) by 40% acetonitrile, 60% triethylamine acetate buffer pH 4.1 at 1 mL/min, where separation of the parent compound and lipophilic metabolites occurs. The effluent from the analytical column also passes through the positron flow detector. The proportion of each species is determined from the area under each chromatographic peak. Results: Radiochemical purity of the 18F-labeled FBnTP was more than 95%. […] FIG. 1 depicts the chromatogram of plasma collected 30 min p.i., and the parental compound incubated for a similar time period (30 min) in buffered saline. […]

[6] = F-18-FBnTP uptake kinetics in the myocardium (PET); type: in vivo, Mongrel dogs; conditions: dog PET
Procedure: Methods: Mongrel dogs (BW=35 kg) were injected with 3-4 mCi of F-18-FBnTP. Images were acquired on a GE 4096+ scanner (15 slices, 6.5 mm slice thickness). PET scans of increasing duration (15 sec to 20 min) were acquired over a total time of 85 min post-injection. Arterial blood samples (0.5 ml in volume) were collected every few seconds for the first 3 minutes and at gradually increasing intervals (1 to 10 min) for the remaining time of the imaging study. The vascular and myocardial kinetics of F-18-FBnTP was analyzed using the ROI method.

[7] = Stability of fluorination: total bone uptake; type: in vivo; conditions: mice, 5 and 30 min p.i., compared to mice injected with F-18 only; listed as F-18-FBnTP
Procedure: Methods: Mice were injected via the tail vein with 25 μCi of F-18-PhC; 5 and 30 min p.i., the left or right femur bone was removed, and bone radioactivity together with standard (1:100 of injected dose) were counted in a gamma counter. A parallel group of mice was injected with free fluorides (F-18). Three mice of each group were studied at each time point. Radioactivity is represented as percentage of injected dosed (% ID) and total bone uptake was calculated as activity in femur bone ×20.

[8] = cited from earlier work
[9] = five-fold increases in flow rate / high flow rates

[11CH3][P+](c1ccccc1)(c1ccccc1)c1ccccc1 [[11C]TPMP, C-11-triphenylmethyl phosphonium]
decrease of the extraction fraction [1]: 39%

[18F]c1ccc(C[P+](c2ccccc2)(c2ccccc2)c2ccccc2)cc1 [[18F]FBnTP, F-18-fluorobenzyl triphenyl phosphonium]
Ratio P/B ([2]; Slices 36-37, ROI1): 0.62 | Ratio P/B ([2]; Slices 36-37, ROI2): 0.91 | Ratio P/B ([2]; Slices 36-37, ROI3): 0.85 | Ratio P/B ([2]; Slices 46-49, ROI1): 0.56 | Ratio P/B ([2]; Slices 46-49, ROI2): 0.76 | Ratio P/B ([2]; Slices 46-49, ROI3): 0.82 | decrease in uptake in the inferior wall after pacing ([2]; dog, 210 bpm for 4 weeks, p<0.001): 40-60% | Inf/Control (FCA-induced inflammation): 0.42 | Accumulation, Control (FCA-induced inflammation): 0.76 ± 0.21 % ID/g tissue | MMP-dependent share of cellular uptake [3]: 86% | uptake in tumor relative to healthy gland [4]: 4 times | uptake in tumor relative to inflammation ([4]; FCA inflammation 3 days): 3 times | stable after intravenous injection of the tracer in vivo ([5]; mice, plasma radiochromatograms): more than 30 min | single radio-peak in plasma chromatography, share of total activity ([5]; mouse plasma collected 5, 15 and 30 min p.i., no other peak observed): 97% | washout from the blood pool ([6]; arterial blood samples): rapid washout | time to equilibrium of accumulation in the myocardium ([6]; persisted for the remaining scanning time (85 min)): within a few minutes | total bone uptake [7]: minimal bone uptake

[18F]CCC[P+](c1ccccc1)(c1ccccc1)c1ccccc1 [[18F]FPTP, [^18F]3-fluoropropyltriphenyl-phosphonium ion]
Inf/Control (FCA-induced inflammation): 0.25 | Accumulation, Control (FCA-induced inflammation): 0.29 ± 0.06 % ID/g tissue

OC[C@H]1OC(O)[C@H]([18F])[C@@H](O)[C@@H]1O (some centres unmarked) [[^18F]FDG, reference compound]
Inf/Control (FCA-induced inflammation): 1.20 and 2.12 | Accumulation, Control (FCA-induced inflammation): 1.05 ± 0.35 % ID/g tissue and 0.68 ± 0.14 % ID/g tissue

[99Tc].[C-]#[N+]CC(C)(C)OC.[C-]#[N+]CC(C)(C)OC.[C-]#[N+]CC(C)(C)OC.[C-]#[N+]CC(C)(C)OC.[C-]#[N+]CC(C)(C)OC.[C-]#[N+]CC(C)(C)OC [[^99mTc]MIBI, Tc-99m-sestamibii]
myocardial extraction ([8]; baseline / normal flow): about 60% | myocardial extraction [8, 9]: 40%

Thallium 201
myocardial extraction ([8]; baseline / normal flow): about 80% | myocardial extraction [8, 9]: about 60%
